Holding throughout (type): biochemical
Assay [1] addresses Dbs-mediated activation of RhoA (Homo sapiens, UniProt P61586). Nature of the assay: fluorescence guanine nucleotide exchange reaction, Dbs-mediated activation of RhoA. To be noted: fluorescence after addition of GEF, versus DMSO vehicle control.
In a further assay the target is RhoA (Homo sapiens, UniProt P61586). Description: complementary radiolabeled nucleotide exchange assay on RhoA.
The target in a further assay is Cdc42 (Homo sapiens, UniProt P60953). Description: complementary radiolabeled nucleotide exchange assay on Cdc42.
The target of the next assay is Rac1 (Homo sapiens, UniProt P63000). Nature of the assay: complementary radiolabeled nucleotide exchange assay on Rac1.
A further assay deals with H-Ras (Homo sapiens, UniProt P01112). Description: complementary radiolabeled nucleotide exchange assay on H-Ras.
For assay [2], the system named is Tiam1-mediated activation of Rac1. Nature of the assay: fluorescence based guanine nucleotide exchange assay, Tiam1-mediated activation of Rac1.
The target of another assay is T1, Rap2A (Homo sapiens, UniProt P10114).
T1 sequence (P10114 1-183): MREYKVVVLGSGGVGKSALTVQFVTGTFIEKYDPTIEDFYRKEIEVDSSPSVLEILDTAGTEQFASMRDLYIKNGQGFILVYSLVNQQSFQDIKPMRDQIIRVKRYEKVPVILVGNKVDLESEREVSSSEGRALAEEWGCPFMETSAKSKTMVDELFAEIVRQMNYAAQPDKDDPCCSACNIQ
Nature of the assay: intrinsic guanine nucleotide exchange of Gpp(NH)p-preloaded Rap2A with mant-GTP (FRET). The note with it: 1 μM RGS14 RBD protein, 100 nM Rap2A, 1 μM mant-GTP, 37° C., compared to Rap2A alone, p<0.05. The method, then: The intrinsic guanine nucleotide exchange rate of Gpp(NH)p-preloaded Rap2A (100 nM) was monitored with mant-GTP in the absence (solid) or presence (dashed) of the RBD tandem repeat (aa 300-447) from the putative Rap2A effector rat RGS14 (1 μM). In this example, 1 mL cuvettes were loaded with 1 μM mant-GTP (in 50 mM Tris pH 7.5, 5 mM MgCl2, 1 mM EDTA at 37° C.) and allowed to equilibrate prior to the addition of 100 nM Rap2A (preloaded with Gpp(NH)p) in the presence or absence of 1 μM of the RGS14 RBD protein. The dissociation of Gpp(NH)p was then measured by excitation of the tryptophan residue. The FRET-mediated excitation of bound mant-GTP was also measured. Binding of the RGS14 RBD repeat region to activated Rap2A prevents the loss of guanine nucleotide from the G-protein, thereby effectively acting as a guanine nucleotide dissociation inhibitor (GDI). Further, the incubation of Rap2A with the RGS14 tandem RBD repeat region slowed the rate of spontaneous nucleotide exchange by about 30% (p<0.05) when compared to that of Rap2A alone. Curves were fit as single exponential functions using GraphPad Prism™ (GraphPad Software, Inc.). […]

Entries after “also recorded” stand apart in the source; their conditions may differ.

Cdc42, sequence (P60953 whole entry, species assumed): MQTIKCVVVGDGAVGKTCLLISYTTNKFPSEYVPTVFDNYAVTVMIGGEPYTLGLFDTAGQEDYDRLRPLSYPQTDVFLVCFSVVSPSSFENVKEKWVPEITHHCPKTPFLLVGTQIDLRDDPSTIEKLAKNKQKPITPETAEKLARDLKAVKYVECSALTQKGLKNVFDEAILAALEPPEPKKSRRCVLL
RhoA, sequence (P61586 whole entry, species assumed): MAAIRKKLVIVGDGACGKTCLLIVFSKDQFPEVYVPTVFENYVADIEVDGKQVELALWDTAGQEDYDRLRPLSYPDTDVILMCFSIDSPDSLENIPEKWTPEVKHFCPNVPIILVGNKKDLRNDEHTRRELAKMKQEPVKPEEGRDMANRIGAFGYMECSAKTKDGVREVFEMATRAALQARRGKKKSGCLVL
Dbs-mediated activation of RhoA, sequence (P61586 whole entry): as the sequence (P61586 whole entry, species assumed) above
H-Ras, sequence (P01112 whole entry, species assumed): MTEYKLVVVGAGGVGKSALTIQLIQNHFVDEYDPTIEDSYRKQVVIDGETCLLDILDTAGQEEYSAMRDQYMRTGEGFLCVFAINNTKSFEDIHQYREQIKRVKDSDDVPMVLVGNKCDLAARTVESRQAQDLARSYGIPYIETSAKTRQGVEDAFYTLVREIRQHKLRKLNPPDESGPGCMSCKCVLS

For the molecule `Nc1nc2c(ncn2[C@@H]2O[C@H](COP(=O)(O)OP(=O)(O)O)[C@@H](O)[C@H]2O)c(=O)[nH]1` [GDP], the “effect on Dbs-mediated RhoA activation / guanine nucleotide exchange” value in assay [1] is given as “inhibit guanine nucleotide exchange”.
As for `O=C(O)C=Cc1ccc[c]([SbH]([O-])([OH])[OH])c1` [NSC#13778, 3-(3-(dihydroxy(oxido)stibino)phenyl)acrylic acid], the “enhancement of nucleotide exchange on RhoA” value at RhoA is listed as “does not enhance nucleotide exchange”. The “enhancement of nucleotide exchange on Cdc42” value on Cdc42 is “does not enhance nucleotide exchange”. Further, the “activity in complementary radiolabeled assay (Rac1)” value at Rac1 is listed as “confirmed”. The “enhancement of nucleotide exchange on H-Ras” value on H-Ras is “does not enhance nucleotide exchange”. The “effect on GEF-mediated nucleotide exchange on Rac1” value in assay [2] (NCI Diversity Set screen, 96-well kinetic format, secondary studies in 1 mL total volume) was “accelerated kinetics; also recorded: enhancing Tiam1-mediated Rac1 activation in a dose-dependent manner; also recorded: accelerates GEF-mediated nucleotide exchange on Rac1 in a dose-dependent manner”. Also, the EC50 (commonly the concentration at which the effect is half-maximal) in assay [2] (acceleration of GEF-mediated nucleotide exchange on Rac1) was around 4 µM.

B1: RGS14 tandem RBD repeat region: RBD tandem repeat (aa 300-447) from the putative Rap2A effector rat RGS14 (protein, UniProt O08773 300-447, looked up, fragment)
chain: KYCCVYLPDGTASLALARPGLTIRDMLAGICEKRGLSLPDIKVYLVGKEQKALVLDQDCTVLADQEVRLENRITFQLELVGLERVVRISAKPTKRLQEALQPILAKHGLSLDQVVLHRPGEKQLVDLENLVSSVASQTLVLDTLPDAK
Consider B1, for which the “slowing of the rate of spontaneous nucleotide exchange of Rap2A” value in the assay with Rap2A is “about 30%”.

The record behind these values is patent US7807400B2, “Methods for identifying chemical modulators of Ras superfamily GTPase activity” (The University of North Carolina at Chapel Hill, priority 2004, dated 2010).
